Values joined by “and” are separate entries in the source; they are usually repeats but may differ in a detail not shown here. Identical values can stand only once.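 Grown in 96-well plates, cells were treated for 48 hours with each compound at five concentrations. Insufficient inhibition: endpoint recorded as highest concentration tested. Here, GI50 denotes the concentration required for 50% inhibition of growth. TGI denotes the concentration required for complete inhibition of growth.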
Legend:
Assay in all cases: DTP human tumour cell line panel, 48 h
UACC-62 melanoma = test system: UACC-62 melanoma
NCI-H23 lung = test system: NCI-H23 lung
UACC-257 melanoma = test system: UACC-257 melanoma
SF-268 CNS = test system: SF-268 CNS
HL-60(TB) leukemia = test system: HL-60(TB) leukemia
NCI-H460 lung = test system: NCI-H460 lung
SR leukemia = test system: SR leukemia
NCI-H522 lung = test system: NCI-H522 lung
A498 renal = test system: A498 renal
BT-549 breast = test system: BT-549 breast

Compound | TGI (UACC-62 melanoma) [µM] | TGI (NCI-H23 lung) | TGI (UACC-257 melanoma) [µM] | TGI (SF-268 CNS) [µM] | TGI (HL-60(TB) leukemia) | TGI (NCI-H460 lung) [µM] | TGI (SR leukemia) | TGI (NCI-H522 lung) | TGI (A498 renal) [µM] | GI50 (NCI-H23 lung) | GI50 (UACC-257 melanoma) [µM] | GI50 (SF-268 CNS) | GI50 (UACC-62 melanoma) [µM] | GI50 (NCI-H460 lung) [µM] | GI50 (BT-549 breast) [µM] | TGI (BT-549 breast) [µM] | GI50 (NCI-H522 lung) [µM] | GI50 (A498 renal) [µM] | GI50 (HL-60(TB) leukemia) [µM]
CCCN(CCCCC(NC(C)=O)C(=O)NCc1ccccc1)C(=O)NCCCl (stereo not given) | > 100 | > 100 µM | > 100 | > 100 | > 100 µM | > 100 | > 100 µM | > 100 µM |  |  |  |  |  |  |  |  |  |  | 
Cc1ccc(NC(=O)CC2C(=O)Nc3ccccc3S2=O)cc1C (stereo not given) | > 100 | > 100 µM | > 100 | > 100 | > 100 µM | > 100 | > 100 µM | > 100 µM | > 100 |  |  |  |  |  |  |  |  |  | 
CC1OC(n2ncc(=O)[nH]c2=O)C=CC1=O (stereo not given) | > 100 | > 100 µM and 37.3 µM | > 100 | > 100 | 57.5 µM and 52.7 µM | > 100 | > 100 µM and 92.9 µM | 37.6 µM and 36.2 µM |  | 34.7 µM and 16.5 µM | 37 | > 100 µM and 36.6 µM |  |  |  |  |  |  | 
CCOP(=O)(OCC)C(NC(c1ccccc1)c1ccccc1)c1ccccc1 (stereo not given) | 25.9 | 28.7 µM |  | 35.4 |  | 41 |  | 48 µM |  | 14.4 µM |  | 15.6 µM | 12.1 | 17.2 | 15.4 | 34.6 | 17.1 |  | 
OCCCCC#Cc1ccccc1C#Cc1ccccc1 | 23.5 | 51.4 µM | 43.8 | 37.6 |  | 62.6 |  | > 100 µM |  | 19.8 µM | 19.4 | 16.8 µM | 11.1 | 22.4 | 11.6 | 25.9 | 27 |  | 
CC(CN(CP(=O)([O-])[O-])CP(=O)([O-])[O-])N(CP(=O)([O-])[O-])CP(=O)([O-])[O-].N.N.[Pt+2] (stereo not given) | > 100 | > 100 µM | > 100 | > 100 | > 100 µM | > 100 |  | > 100 µM | > 100 | > 100 µM | > 100 | > 100 µM | > 100 | > 100 |  |  | > 100 | > 100 | > 100
COc1ccc(/C=N/N=C(\N)NO)cc1OC | 72.1 | > 100 µM | > 100 | 73.6 | > 100 µM | > 100 | > 100 µM | 79.9 µM |  |  |  |  |  |  |  |  |  |  | 
N[C@@H](Cc1c[nH]c2ccccc12)C(=O)NC1CCN(C(=O)c2c[nH]c3ccccc23)CC1 | > 100 | > 100 µM |  | > 100 | > 100 µM | > 100 |  | > 100 µM |  | > 100 µM |  | > 100 µM | > 100 | 79.9 | > 100 | > 100 | > 100 |  | > 100
COc1ccc2[nH]c(-c3ccccn3)cc(=O)c2c1 | > 100 | > 100 µM | > 100 | 65.8 | > 100 µM | > 100 |  | 65.8 µM |  |  |  | 24.2 µM |  |  |  |  |  |  | 
